{"source": "paper PMC12363935", "about": "“Unc-51 Like Kinase 3 (ULK3) is essential for autophagy and cell survival in multiple myeloma” (Research Square, 2025)", "key": {"primary CD138+ MM cells": {"system": "primary CD138+ MM cells", "experiment": "EMMA ex vivo platform, live cell imaging, 96 hours, collagen matrix with bone marrow stroma and patient plasma", "assay_type": "cell-based", "parameters": "scale not given here", "description": "For clinical robustness, we tested the activity of MA9 in MM patient samples using our ex vivo mathematical myeloma advisor (EMMA) platform (Supplementary Table 1). […]\nFor these assays, we used a novel EMMA platform developed at Moffitt. Further details are included in the supplemental Materials. […]\n400 Ex vivo drug sensitivity characterization\n401 An ex vivo assay was used to quantify the chemosensitivity of primary MM cells. Fresh BM\n402 aspirate cells were enriched for CD138+ expression using Miltenyi (Bergisch Gladbach, Germany)\nMM cells (CD138+) were seeded in Corning\n404 Cell BIND 384 well plates (Corning, NY) with collagen I and previously established human-\n407 inactivated), penicillin/streptomycin, and patient-derived plasma (10%, freshly obtained from\n409 added using a robotic plate handler so that every drug/combination was tested at 5 (fixed\n410 concentration ratio, for combinations) concentrations (1:3 serial dilution) in two replicates.\n411 Negative controls (supplemented growth media with and without the vehicle control dimethyl\n412 sulfoxide [DMSO]) were included, as well as positive controls for each drug (cell line MM1.S at\n413 highest drug concentration). Plates were placed in a motorized stage microscope (EVOS Auto FL,\n414 Life Technologies, Carlsbad, CA) equipped with an incubator and maintained at 5% CO2 and 37\n415 °C. […]\nDigital image analysis computes the percent\n418 viability of MM cells for each time point and experimental condition (drug and concentration)"}, "BRD4-1": {"biological_target": "T1, BRD4-1 (Homo sapiens, UniProt O60885)", "T1 construct": "evaluated against Bromodomain 1 by Reaction Biology Corporation; purchased Reaction Biology Corporation", "experiment": "Bromodomain profiling assay, AlphaScreen binding, H4/4Ac ligand", "conditions": "NA = no activity", "procedure": "331 Bromodomain profiling assay\n333 evaluated against Bromodomain 1 by Reaction Biology Corporation.\n334 The compounds were subjected to testing using a 10-dose IC50 singlet approach, involving a 3-\n335 fold serial dilution starting at 10 μM, specifically against BRD4-1. Additionally, as a benchmark,\n340 Detection was carried out through the AlphaScreen Binding assay with excitation/emission\n341 wavelengths set at 680/520-620 nm, respectively, using the Enspire platform.\n342 The data acquisition included raw data, represented as signal-background*, % Binding (relative to\n343 DMSO controls), and curve fits."}}, "note": "Several values for one entry are separate records, joined by “and”; a condition that tells them apart may be missing. Identical values can stand only once.", "data": [{"smiles": "Cc1cnc(Nc2ccc(C3CCN(C)CC3)c(F)c2)nc1Nc1ccc(Cl)c(NS(=O)(=O)C(C)(C)C)c1", "note": "[MA9060]", "values": [{"measurement": "AUC", "setting": "primary CD138+ MM cells; Pt648, LRMM", "value": 42.835}, {"measurement": "AUC", "setting": "primary CD138+ MM cells; Pt653, LRMM", "value": 41.560}, {"measurement": "AUC", "setting": "primary CD138+ MM cells; Pt655, LRMM, listed as MA9", "value": 26.03}, {"measurement": "AUC", "setting": "primary CD138+ MM cells; Pt663, LRMM, listed as MA9", "value": 47.02}, {"measurement": "AUC", "setting": "primary CD138+ MM cells; Pt665, LRMM, listed as MA9", "value": 70.14}, {"measurement": "AUC", "setting": "primary CD138+ MM cells; Pt666, LRMM, listed as MA9", "value": 49.23}, {"measurement": "AUC", "setting": "primary CD138+ MM cells; Pt669, ERMM, listed as MA9", "value": 29.51}, {"measurement": "AUC", "setting": "primary CD138+ MM cells; Pt672, NDMM, listed as MA9", "value": 49.16}, {"measurement": "AUC", "setting": "primary CD138+ MM cells; Pt677, NDMM", "value": "43.301 and 45.593"}, {"measurement": "AUC", "setting": "primary CD138+ MM cells; Pt680, ERMM", "value": 42.605}, {"measurement": "AUC", "setting": "primary CD138+ MM cells; Pt680, ERMM, listed as MA9", "value": 35.24}, {"measurement": "AUC", "setting": "primary CD138+ MM cells; Pt685, ERMM, listed as MA9", "value": 100}, {"measurement": "AUC", "setting": "primary CD138+ MM cells; Pt689, NDMM", "value": 97.182}, {"measurement": "AUC", "setting": "primary CD138+ MM cells; Pt691, LRMM, listed as MA9", "value": 68.66}, {"measurement": "AUC", "setting": "primary CD138+ MM cells; Pt693, SMOL, listed as MA9", "value": 70.97}, {"measurement": "AUC", "setting": "primary CD138+ MM cells; Pt694, NDMM, listed as MA9", "value": 47.51}, {"measurement": "AUC", "setting": "primary CD138+ MM cells; Pt695, LRMM, listed as MA9", "value": 70.64}, {"measurement": "AUC", "setting": "primary CD138+ MM cells; Pt697, NDMM, listed as MA9", "value": 65.92}, {"measurement": "AUC", "setting": "primary CD138+ MM cells; Pt700, NDMM", "value": 71.574}, {"measurement": "AUC", "setting": "primary CD138+ MM cells; Pt700, NDMM, listed as MA9", "value": 71.39}, {"measurement": "AUC", "setting": "primary CD138+ MM cells; Pt707, LRMM, listed as MA9", "value": 73.56}, {"measurement": "AUC", "setting": "primary CD138+ MM cells; Pt718, SMOL, listed as MA9", "value": 76.17}, {"measurement": "AUC", "setting": "primary CD138+ MM cells; Pt737, MGUS", "value": 42.854}, {"measurement": "AUC", "setting": "primary CD138+ MM cells; Pt738, NDMM, listed as MA9", "value": 65.97}, {"measurement": "AUC", "setting": "primary CD138+ MM cells; Pt740, SMOL", "value": 62.223}, {"measurement": "AUC", "setting": "primary CD138+ MM cells; Pt745, NDMM", "value": 55.970}, {"measurement": "AUC", "setting": "primary CD138+ MM cells; Pt825, NDMM", "value": 100}, {"measurement": "AUC", "setting": "primary CD138+ MM cells; Pt852, NDMM", "value": 41.956}, {"measurement": "AUC", "setting": "primary CD138+ MM cells; Pt853, ERMM", "value": "49.879 and 54.514"}, {"measurement": "AUC", "setting": "primary CD138+ MM cells; Pt856, NDMM, listed as MA9", "value": 72.33}, {"measurement": "AUC", "setting": "primary CD138+ MM cells; Pt865, LRMM, listed as MA9", "value": 59.28}, {"measurement": "AUC", "setting": "primary CD138+ MM cells; Pt866, NDMM, listed as MA9", "value": 37.56}, {"measurement": "AUC", "setting": "primary CD138+ MM cells; Pt875, NDMM, listed as MA9", "value": 21.1}, {"measurement": "AUC", "setting": "primary CD138+ MM cells; Pt885, NDMM", "value": 28.777}, {"measurement": "AUC", "setting": "primary CD138+ MM cells; Pt885, NDMM, listed as MA9", "value": 27.78}, {"measurement": "AUC", "setting": "primary CD138+ MM cells; Pt888, LRMM, listed as MA9", "value": 59.98}, {"measurement": "AUC", "setting": "primary CD138+ MM cells; Pt893, LRMM", "value": 96.916}, {"measurement": "AUC", "setting": "primary CD138+ MM cells; Pt899, SMOL", "value": 28.290}, {"measurement": "AUC", "setting": "primary CD138+ MM cells; Pt906, NDMM, listed as MA9", "value": 43.69}, {"measurement": "AUC", "setting": "primary CD138+ MM cells; Pt909, LRMM", "value": 46.043}, {"measurement": "AUC", "setting": "primary CD138+ MM cells; Pt912, PCL", "value": 41.302}, {"measurement": "AUC", "setting": "primary CD138+ MM cells; Pt917, LRMM", "value": 73.927}, {"measurement": "AUC", "setting": "primary CD138+ MM cells; Pt920, LRMM", "value": 44.399}, {"measurement": "AUC", "setting": "primary CD138+ MM cells; Pt923, LRMM, listed as MA9", "value": 28.34}, {"measurement": "AUC", "setting": "primary CD138+ MM cells; Pt932, LRMM", "value": 45.003}, {"measurement": "AUC", "setting": "primary CD138+ MM cells; Pt933, LRMM, listed as MA9", "value": 57.89}, {"measurement": "AUC", "setting": "primary CD138+ MM cells; Pt935, NDMM, listed as MA9", "value": 25.47}, {"measurement": "AUC", "setting": "primary CD138+ MM cells; Pt936, LRMM", "value": 83.700}, {"measurement": "AUC", "setting": "primary CD138+ MM cells; Pt937, NDMM", "value": "48.139 and 40.693"}, {"measurement": "AUC", "setting": "primary CD138+ MM cells; Pt940, LRMM", "value": 72.923}, {"measurement": "AUC", "setting": "primary CD138+ MM cells; Pt945, LRMM", "value": 39.091}, {"measurement": "AUC", "setting": "primary CD138+ MM cells; Pt948, LRMM, listed as MA9", "value": 24.69}, {"measurement": "AUC", "setting": "primary CD138+ MM cells; Pt951, ERMM, listed as MA9", "value": 62.38}, {"measurement": "AUC", "setting": "primary CD138+ MM cells; Pt956, NDMM", "value": "67.208 and 74.021"}, {"measurement": "AUC", "setting": "primary CD138+ MM cells; Pt957, LRMM", "value": 80.043}, {"measurement": "AUC", "setting": "primary CD138+ MM cells; Pt961, NDMM", "value": "66.118 and 49.072"}, {"measurement": "IC50", "setting": "BRD4-1", "value": 3.8, "unit": "nM"}]}]}
